Legend:
purified rat liver TrxR = biological target: T1, purified rat liver TrxR (Rattus norvegicus, UniProt O89049); test: In vitro TrxR activity (DTNB reduction assay); assay type: biochemical; details: 100 μM Iniparib, 200 μM NADPH, up to 120 min
T1 construct: Wild type TrxR purified from rat liver was from Sigma-Aldrich Chemicals; purchased Sigma-Aldrich Chemicals; host or cells: rat liver (tissue-purified)

[1] = Phase I clinical trial GBM, safety, DLT and MTD
Description: It was a single arm, multi dose, dose escalating trial in newly diagnosed GBM patients. The total number of patients was 43, with about 5 patients per cohort. Patients who tolerated radiation (XRT) and temozolomide (TMZ) were recruited. Inclusion criteria included completion of XRT and TMZ without grade 3 or 4 toxicity and labs within acceptable range within 6 weeks of completing XRT. The end points included safety, maximum tolerated dose (MTD), and signal of activity.
Using modified continual reassessment method, MTD was defined for metronomic and standard dose TMZ.

[2] = biological target: T2, TrxR1 and other protein targets in HCT116 cells (Homo sapiens, UniProt Q16881); details: 90-min preincubation of GSH-depleted HCT116 (auranofin 10 μM or Iniparib 100 μM)
T2 sequence (Q16881 1-499 isoform Q16881-5): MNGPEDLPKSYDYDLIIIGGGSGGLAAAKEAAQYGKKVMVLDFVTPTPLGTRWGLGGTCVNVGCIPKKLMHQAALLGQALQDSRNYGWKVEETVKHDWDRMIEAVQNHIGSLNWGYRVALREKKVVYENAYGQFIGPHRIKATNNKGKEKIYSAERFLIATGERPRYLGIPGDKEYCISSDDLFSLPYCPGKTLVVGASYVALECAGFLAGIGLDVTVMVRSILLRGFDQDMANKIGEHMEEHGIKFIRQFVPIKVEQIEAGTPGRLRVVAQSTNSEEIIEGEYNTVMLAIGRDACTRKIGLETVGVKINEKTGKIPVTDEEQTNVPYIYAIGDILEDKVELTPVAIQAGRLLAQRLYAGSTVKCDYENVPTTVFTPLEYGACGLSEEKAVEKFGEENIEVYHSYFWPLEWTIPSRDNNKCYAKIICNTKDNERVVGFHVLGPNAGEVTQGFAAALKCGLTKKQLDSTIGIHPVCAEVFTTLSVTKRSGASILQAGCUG
Description: TrxR1 immunoprecipitates (FIG. 17A) and cells extracts (FIG. 17B) were analysed by SDS-PAGE under reducing conditions followed by streptavidin-HRP blot and TrxR1 blot.
Clarified octyl-glucoside lysates (12 mg proteins) were combined with anti-TrxR1 or anti-TrxR2 monoclonal antibody coupled to protein G plus agarose (Santa Cruz Biotechnology) and mixed overnight at 4° C. Beads were recovered by centrifugation for 2 min at 1,000×g and extensively washed in octyl-glucoside lysis buffer. Precipitated complexes were eluted by incubating the beads for 20 min at 60° C. in SDS sample buffer. The amount of immunoprecipitated TrxR1 and TrxR2 was systematically checked by blots anti-TrxR1 and anti-TrxR2, respectively.

TrxR1 = biological target: T3, TrxR1 (Homo sapiens, UniProt Q16881); test: Mass spectrometry of immunoprecipitated TrxR1 modified by Iniparib in HCT116 cells; assay type: cell-based; design: TrxR1 and TrxR2 were immunoprecipitated from octylglucoside cell extracts (12 mg proteins); endogenous in cells; host or cells: HCT116 (BSO-pretreated); details: for TrxR1 modified on Sec residue: 100 μM, GSH-depleted HCT116
T3 sequence (Q16881 1-499 isoform Q16881-5): T2 sequence (Q16881 1-499 isoform Q16881-5)
Description: After separation by SDS-PAGE under reducing conditions and PageBlue® protein staining (Thermo scientific), bands of interest were excised, reduced with DTT, alkylated with iodoacetamide and in-gel digested with trypsin (Promega), according to the method of Shevchenko et al. (24). Peptides were extracted with 50 mM ammonium bicarbonate and 50% acetonitrile in 0.2% formic acid and analyzed by Nano LC-MS/MS after partial evaporation in a speed-vac concentrator. LC-MS/MS experiments were performed on an NanoAcquity UPLC (Waters) coupled to a hybrid LTQ Orbitrap Velos mass spectrometer (Thermo Fisher Scientific) equipped with a nanoelectrospray source. Tryptic digests were loaded onto a nanoAcquity UPLC Trap column (Symmetry C18, 5 μm, 180 μm×20 mm, Waters) and washed with 0.2% FA at 20 μl/min for 5 min. Peptides were then eluted on a C18 reverse-phase nanoAcquity column (BEH130 C18, 1.7 μm, 75 μm×250 mm, Waters) with a linear gradient of 7-30% solvent B (H2O/CH3CN/HCOOH, 10:90:0.2, by vol.) for 85 min, 30-90% solvent B for 10 min, and 90% solvent B for 5 min, at a flow rate of 250 nL/min. The mass spectrometer was operated in the data-dependent mode to automatically switch between MS and MS/MS acquisition. Survey full scan MS spectra (m/z 300-1,600) were acquired in the Orbitrap with a resolution of 60,000 at m/z 400. The AGC was set to 1×10^6 with a maximum injection time of 100 ms. The most intense ions (up to 20) were then isolated for fragmentation in the LTQ linear ion trap with normalized collision energy of 28% at the default activation q of 0.25 with an AGC of 5×10^3 and a maximum injection time of 200 ms. The dynamic exclusion time window was set to 80 s. LC-MS/MS data, acquired using the Xcalibur software (Thermo-Fisher Scientific), were processed using a homemade Visual Basic program software developed using XRawfile libraries (distributed by Thermo-Fisher Scientific) to generate a MS/MS peak list (MGF file) which will be used for database searching. This MGF file contained the exact parent mass and the retention time (RT) associated with each MS/MS spectrum. The exact parent mass is the 12C isotope ion mass of the most intense isotopic pattern detected on the high resolution Orbitrap MS parallel scan and included in the MS/MS selection window. The RT is issued from the LTQ-MS/MS scan. Database searches were done using our internal MASCOT server (version 2.1, matrix Science) using the SwissProt human database. […] The precursor mass tolerance was set to 5 ppm and the fragment ion tolerance was set to 0.5 Da. The number of missed cleavage sites for trypsin was set to 3. Mascot result files (“.dat” files) were imported into Scaffold software. Scaffold (version 3.4.5, Proteome software Inc., Portland, Oreg.) was used to validate MS/MS based peptide and protein identifications. Queries were also used for XTandem parallel Database Search. The compiled results of both database searches were exported.

HCT116 cells = test: Fluorescence microscopy, subcellular localization of Iniparib-biotin targets; assay type: cell-based, human; details: HCT116, 30 min after adding Iniparib-biotin
Description: HCT116 cells were platted on polylysine D coated thin glass bottom microscope chambers (Ibidi). […] For subcellular localization experiments mitochondria were stained with 100 nM Mitotracker Red CMX (Molecular probes) added for 10 min. This stain was performed before fixation (Paraformaldehyde 3.7% in PBS pH 7.4). Biotin was developed, after Triton X100 (0.3% in PBS, 15 min) permeabilization and saturation (1% BSA+1% gelatin in PBS: saturation buffer), with Alexa-488 streptavidin (Molecular Probes) conjugate (1 μg/ml in saturation buffer). Nuclei were stained with Hoechst (Molecular Probes) and samples mounted in anti-fading solution (Ibidi).
Cells were imaged with a PLAN NeoFluar 40× (NA 1.3) or 100×, (NA 1.46) oil objectives on a LSM510 (Zeiss) confocal microscope. Laser lines, filters and dichroic mirrors were selected for maximal separation of the green (Ex./Em. 488/530 nm) and the red fluorescence (Ex./Em. 543/LP 585 nm). Nuclei were observed (Ex./Em. 405/460 nm). For co-localization stacks of images separated by 400 nm along z-axis were acquired. Post-capture processing was done using LSM510 software, and Photoshop (Adobe) was used to make linear adjustments to brightness and contrast.

T1 sequence (O89049 whole entry): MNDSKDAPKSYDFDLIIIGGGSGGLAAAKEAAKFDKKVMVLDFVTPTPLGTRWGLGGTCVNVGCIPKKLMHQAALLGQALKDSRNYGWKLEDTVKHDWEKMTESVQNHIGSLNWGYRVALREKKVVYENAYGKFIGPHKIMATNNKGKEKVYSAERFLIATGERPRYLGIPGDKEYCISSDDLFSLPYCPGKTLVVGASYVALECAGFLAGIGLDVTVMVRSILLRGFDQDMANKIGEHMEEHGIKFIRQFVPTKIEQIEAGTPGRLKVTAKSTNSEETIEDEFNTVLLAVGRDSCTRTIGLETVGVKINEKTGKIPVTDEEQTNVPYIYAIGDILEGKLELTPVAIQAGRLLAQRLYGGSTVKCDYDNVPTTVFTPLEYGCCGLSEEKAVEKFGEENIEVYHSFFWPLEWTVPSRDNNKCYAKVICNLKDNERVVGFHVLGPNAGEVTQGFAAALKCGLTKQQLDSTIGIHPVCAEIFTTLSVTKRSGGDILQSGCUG

Row | SMILES | TrxR reductase activity (purified rat liver TrxR) | Phase 2 dose defined ([1]; IV 2×/wk with metronomic TMZ) | Phase 2 dose defined ([1]; IV 2×/wk with standard TMZ) | TrxR1 labeling with Iniparib-biotin after preincubation [2] | TrxR1 modified on both adjacent Cys and Sec residues (TrxR1; 1 h) | TrxR1 modified on Sec residue (TrxR1; 1 h) | 5 other TrxR1 peptides modified on Cys residues, altogether (TrxR1; 4 h) | TrxR1 modified on both adjacent Cys and Sec residues (TrxR1; 4 h) | TrxR1 modified on Sec residue (TrxR1; 4 h) | subcellular localization of labeled proteins (HCT116 cells)
1 | NC(=O)c1ccc(I)c([N+](=O)[O-])c1 [Iniparib, 4-iodo-3-nitrobenzamide] | time-dependent inhibition of its reductase activity | 8.6 mg/kg | 8 mg/kg | only a partial inhibition | 0.8% | 50% | less than 7 % of the total protein | 4.7% | 67% | 
2 | O=C(CCCC[C@@H]1SC[C@@H]2NC(=O)N[C@@H]21)NCCNC(=O)c1ccc(I)c([N+](=O)[O-])c1 [Iniparib-biotin, 4-iodo-3-nitro-N-(2-(5-((3 aS,4S,6aR)-2-oxohexahydro-1H-thieno[3,4-d]imidazol-4-yl)pentanamido)ethyl)benzamide] |  |  |  |  |  |  |  |  |  | cellular proteins were labeled in the cytosol as well as in the nucleus and cytoplasmic structures
